Assay [1] deals with T1, human AR (Homo sapiens, UniProt P10275).
T1 sequence (P10275 1-920): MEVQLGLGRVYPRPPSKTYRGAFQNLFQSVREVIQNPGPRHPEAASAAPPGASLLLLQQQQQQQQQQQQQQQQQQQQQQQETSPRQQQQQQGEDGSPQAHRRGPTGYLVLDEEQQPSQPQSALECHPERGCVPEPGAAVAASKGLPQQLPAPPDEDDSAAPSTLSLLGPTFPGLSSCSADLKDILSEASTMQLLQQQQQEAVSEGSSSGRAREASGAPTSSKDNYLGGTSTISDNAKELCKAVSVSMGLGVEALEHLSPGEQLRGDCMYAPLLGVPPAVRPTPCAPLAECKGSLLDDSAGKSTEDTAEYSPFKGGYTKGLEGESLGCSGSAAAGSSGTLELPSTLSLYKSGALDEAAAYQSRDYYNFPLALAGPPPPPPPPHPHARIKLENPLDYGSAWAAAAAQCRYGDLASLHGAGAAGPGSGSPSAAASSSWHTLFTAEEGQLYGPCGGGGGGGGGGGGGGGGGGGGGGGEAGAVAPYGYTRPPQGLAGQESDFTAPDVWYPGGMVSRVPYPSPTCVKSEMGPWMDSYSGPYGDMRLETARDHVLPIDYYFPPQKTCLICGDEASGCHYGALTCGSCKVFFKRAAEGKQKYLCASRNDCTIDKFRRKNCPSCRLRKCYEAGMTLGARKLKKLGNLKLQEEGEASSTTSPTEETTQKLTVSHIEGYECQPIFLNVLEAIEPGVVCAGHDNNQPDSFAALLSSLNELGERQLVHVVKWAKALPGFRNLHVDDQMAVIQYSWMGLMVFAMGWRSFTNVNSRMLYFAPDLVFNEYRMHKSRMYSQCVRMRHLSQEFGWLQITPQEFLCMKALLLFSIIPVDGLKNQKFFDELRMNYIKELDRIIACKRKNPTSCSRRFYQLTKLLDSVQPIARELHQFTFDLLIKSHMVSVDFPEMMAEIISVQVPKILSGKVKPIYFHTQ
As to the kind of experiment: Co-transfection assay, AR agonist activity (CV-1 cells, MTV-LUC reporter). The class given is cell-based. The following applies: CV-1 cells; for EC50: agonist potency EC50; for AR Agonist CV-1 Cells Efficacy (%): percent maximal response relative to reference agonist DHT.

Assay [2] has as its target T1, human AR. In words: Co-transfection assay, AR antagonist activity (CV-1 cells, in presence of DHT). Conditions: for AR Antagonist CV-1 Cells Efficacy (%): percent maximal inhibition, DHT at its EC50; for IC50: read-out: AR Antagonist CV-1 Cells Potency. The class given is cell-based.
The target of assay [3] is T1, human AR. As to the kind of experiment: AR whole cell competitive binding assay (COS-1 cells, 3H-DHT). The following applies: 1 nM 3H-DHT, Cheng-Prusoff.

Where two headings read alike, the source gives them in different places.

In assay [1], `CC(C)Nc1ccc2c(C(F)(F)F)c(F)c(=O)[nH]c2c1` [Compound 535, 3-Fluoro-7-isopropylamino-4-trifluoromethyl-2(1H)-quinolinone] yielded an EC50 above 10000 nM. Moreover, the “AR Antagonist CV-1 Cells Efficacy (%)” value in assay [2] (CV-1 cells) was found to be 76%. For the same compound, the IC50 in assay [2] was found to be 60 nM. The compound also showed a Ki in assay [3] above 1000 nM.
As for `C=CC1CCCCN1c1ccc2[nH]c(=O)cc(C(F)(F)F)c2c1` (racemic) [Compound 444, (±)-6-(2-Vinyl-1-piperidino)-4-trifluoromethyl-2(1H)-quinolinone], in assay [1], it took 73 nM to reach a half-maximal effect (EC50) and the “AR Agonist CV-1 Cells Efficacy (%)” value is on record as 83%. Besides, the “AR Antagonist CV-1 Cells Efficacy (%)” value in assay [2] (CV-1 cells) was “na (na = not active (i.e. efficacy of <20 and potency of >10,000))”. Also, the IC50 in assay [2] was above 10000 nM. Moreover, the affinity in assay [3] corresponds to a Ki of 26 nM.
Consider `COC[C@H]1CCCN1c1ccc2[nH]c(=O)cc(C(F)(F)F)c2c1` [Compound 423, (R)-6-(2-Methoxymethyl-1-pyrrolidino)-4-trifluoromethyl-2(1H)-quinolinone], for which, in assay [1], the midpoint of the response, the EC50, lay at 86 nM and the “AR Agonist CV-1 Cells Efficacy (%)” value is recorded as 57%. For the same compound, in assay [2] (CV-1 cells), the “AR Antagonist CV-1 Cells Efficacy (%)” value is “na (na = not active (i.e. efficacy of <20 and potency of >10,000))”. For the same compound, in assay [2], the IC50 was above 10000 nM. The affinity in assay [3], expressed as Ki, was 22 nM.
With `CCCN(CC(F)(F)F)c1ccc2[nH]c(=O)cc(C)c2c1` [Compound 374, 6-(N-Propyl-N-2,2,2-trifluoroethyl)amino-4-methyl-2(1H)-quinolinone], in assay [1], it took 2.2 nM to reach a half-maximal effect (EC50) and the “AR Agonist CV-1 Cells Efficacy (%)” value stood at 77%. The “AR Antagonist CV-1 Cells Efficacy (%)” value in assay [2] (CV-1 cells) is “na (na = not active (i.e. efficacy of <20 and potency of >10,000))”. In assay [2], the IC50 is above 10000 nM. In addition, the inhibitory constant (Ki) in assay [3] was found to be 6.2 nM.
Compound `CC(C)(C)Nc1ccc2[nH]c(=O)cc(C(F)(F)F)c2c1` [Compound 307, 6-tert-Butylamino-4-trifluoromethyl-2(1H)-quinolinone] had an EC50 in assay [1] above 10000 nM. Moreover, in assay [2] (CV-1 cells), the “AR Antagonist CV-1 Cells Efficacy (%)” value is recorded as 43%. Besides, the IC50 in assay [2] stood at 3.2 nM. In addition, the Ki in assay [3] was determined as 61 nM.
As to `CC1(C)CC2CC(C)(CN2c2ccc3[nH]c(=O)cc(C(F)(F)F)c3c2)C1` (racemic) [Compound 350, (±)-6-(1,3,3-Trimethyl-6-azabicyclo[3.2.1]octanyl-6-)-4-trifluoromethyl-2(1H)-quinolinone], in assay [1], a half-maximal response (EC50) required 29 nM and the “AR Agonist CV-1 Cells Efficacy (%)” value was 73%. Also, the “AR Antagonist CV-1 Cells Efficacy (%)” value in assay [2] (CV-1 cells) was “na (na = not active (i.e. efficacy of <20 and potency of >10,000))”. Besides, the IC50 in assay [2] was above 10000 nM. The same compound came in with a Ki in assay [3] of 165 nM.
With `O=c1cc(C(F)(F)F)c2cc(N3CCCC3Cc3ccccc3)ccc2[nH]1` (racemic) [Compound 341, (±)-6-(2-Benzyl-1-pyrrolidino)-4-trifluoromethyl-2(1H)-quinolinone], the half-maximal effective concentration (EC50) in assay [1] was above 10000 nM. For the same compound, the “AR Antagonist CV-1 Cells Efficacy (%)” value in assay [2] (CV-1 cells) is 85%. In assay [2], the IC50 is 15 nM. The same compound displayed an inhibition constant Ki in assay [3] of 277 nM.
The like results for `Cn1c(=O)cc(C(F)(F)F)c2ccc(NCC(F)(F)F)cc21` [Compound 532, 1-Methyl-7-(2,2,2-trifluoromethyl)amino-4-trifluoromethyl-2(1H)-quinolinone] were, in that order, above 10000 nM, 85%, 73 nM and 159 nM.
As to `C[C@@H]1CC[C@H](C)N1c1ccc2[nH]c(=O)cc(C(F)(F)F)c2c1` [Compound 328, 6-(2,5-cis-Dimethyl-1-pyrrolidino)-4-trifluoromethyl-2(1H)-quinolinone], in assay [1], the EC50 came to 1.7 nM and the “AR Agonist CV-1 Cells Efficacy (%)” value worked out at 93%. The “AR Antagonist CV-1 Cells Efficacy (%)” value in assay [2] (CV-1 cells) was “na (na = not active (i.e. efficacy of <20 and potency of >10,000))”. Moreover, in assay [2], the IC50 is above 10000 nM. Besides, in assay [3], the affinity corresponds to a Ki of 48 nM.
Turning to `O=c1cc(C(F)(F)F)c2cc(C(O)(c3ccccc3)c3ccccc3)ccc2[nH]1` [Compound 659, 6-(1-Hydroxy-1,1-diphenyl)methyl-4-trifluoromethyl-2(1H)-quinolinone], the EC50 in assay [1] was above 10000 nM. The “AR Antagonist CV-1 Cells Efficacy (%)” value in assay [2] (CV-1 cells) is given as 70%. The IC50 in assay [2] is 44 nM. Besides, the Ki in assay [3] stood at 40 nM.
Consider `O=c1cc(C(F)(F)F)c2cc(NCC(Cl)(Cl)Cl)ccc2[nH]1` [Compound 227, 6-(N-2,2,2-Trichloroethyl)amino-4-trifluoromethyl-2(1H)-quinolinone], for which the EC50 in assay [1] was above 10000 nM. For the same compound, in assay [2] (CV-1 cells), the “AR Antagonist CV-1 Cells Efficacy (%)” value is listed as 73%. Moreover, the IC50 in assay [2] worked out at 14 nM. For the same compound, affinity in assay [3] was put at a Ki of 38 nM.
For the compound `O=c1cc(C(F)(F)F)c2cc(N(CC(Cl)Cl)CC(Cl)Cl)ccc2[nH]1` [Compound 232, 6-(bis-N-2,2-Dichloroethyl)amino-4-trifluoromethyl-2(1H)-quinolinone], in assay [1], the EC50 amounted to 3.4 nM and the “AR Agonist CV-1 Cells Efficacy (%)” value was determined as 55%. Moreover, in assay [2] (CV-1 cells), the “AR Antagonist CV-1 Cells Efficacy (%)” value was “na (na = not active (i.e. efficacy of <20 and potency of >10,000))”. Further, the IC50 in assay [2] was above 10000 nM. Further, the Ki in assay [3] is 7.6 nM.
Take `CCCCC1(O)C=C(c2ccc3c(c2)C(C)(C)OC(=O)N3)CCC1` (racemic) [Compound 694, (±)-6-(3-Butyl-3-hydroxy-1-)cyclohexenyl-1,4-dihydro-4,4-dimethyl-1,3-benzo[d]oxazin-2-one]: in assay [1], the EC50 was determined as 935 nM and the “AR Agonist CV-1 Cells Efficacy (%)” value is listed as 25%. Further, in assay [2] (CV-1 cells), the “AR Antagonist CV-1 Cells Efficacy (%)” value is listed as 90%. Further, the IC50 in assay [2] was found to be 64 nM. For the same compound, the Ki in assay [3] is above 1000 nM.
With `CCC[C@@H]1CC[C@H](CCC)N1c1ccc2[nH]c(=O)cc(C(F)(F)F)c2c1` [Compound 366, 6-(2,5-cis-Dipropyl-1-pyrrolidino)-4-trifluoromethyl-2(1H)-quinolinone], the concentration giving a half-maximal response (EC50) in assay [1] was above 10000 nM. In addition, in assay [2] (CV-1 cells), the “AR Antagonist CV-1 Cells Efficacy (%)” value is on record as 85%. For the same compound, in assay [2], the IC50 stood at 31 nM. In assay [3], this compound came in with a Ki above 1000 nM.
As to `CCN(CC(C)C)c1ccc2[nH]c(=O)cc(C(F)(F)F)c2c1` [Compound 241, 6-(N-Ethyl-N-isobutyl)amino-4-trifluoromethyl-2(1H)-quinolinone], in assay [1], the EC50 turned out to be 2.9 nM and the “AR Agonist CV-1 Cells Efficacy (%)” value is on record as 73%. In assay [2] (CV-1 cells), the “AR Antagonist CV-1 Cells Efficacy (%)” value was “na (na = not active (i.e. efficacy of <20 and potency of >10,000))”. Also, in assay [2], the IC50 is above 10000 nM. Moreover, affinity in assay [3] was put at a Ki of 30 nM.
As for `O=c1cc(C(F)(F)F)c2cc(N3CCCCCC3)ccc2[nH]1` [Compound 330, 6-(1-Azepano)-4-trifluoromethyl-2(1H)-quinolinone], in assay [1], the EC50 is 3.9 nM and the “AR Agonist CV-1 Cells Efficacy (%)” value stood at 81%. Moreover, the “AR Antagonist CV-1 Cells Efficacy (%)” value in assay [2] (CV-1 cells) is “na (na = not active (i.e. efficacy of <20 and potency of >10,000))”. Besides, in assay [2], the IC50 was above 10000 nM. Moreover, the inhibitory constant (Ki) in assay [3] came out at 55 nM.
For the compound `CC1CN(c2ccc3[nH]c(=O)cc(C(F)(F)F)c3c2)C(C(F)(F)F)O1` (racemic) [Compound 351, (±)-6-(2-Trifluoromethyl-5-cis-methyl-1-oxazolidino)-4-trifluoromethyl-2(1H)-quinolinone], in assay [1], the concentration giving a half-maximal response (EC50) amounted to 23 nM and the “AR Agonist CV-1 Cells Efficacy (%)” value came out at 79%. In assay [2] (CV-1 cells, antagonist potency IC50, DHT at its EC50), the IC50 is above 10000 nM. Also, in assay [2] (CV-1 cells), the “AR Antagonist CV-1 Cells Efficacy (%)” value was “na (na = not active (i.e. efficacy of <20 and potency of >10,000))”. The compound also came in with a Ki in assay [3] of 31 nM.
